This note sets out measurements from ChEMBL document CHEMBL3352057, “Novel fluorinated pyrrolo[1,2-a]pyrazine-2,6-dione derivatives: synthesis and anticonvulsant evaluation in animal models of epilepsy” (Bioorg Med Chem, 2014).

Active and inactive are the calls of the source. The calls are words filed in the database; no cut-off is given here. Where only a bound is given, the exact number is not on record here.

The subject of data set [1] is Mus musculus. Put plainly: Neurotoxicity in 32 mA current-induced seizure albino CF1 mouse model at 100 mg/kg, ip measured after 0.5 hr. Further details: dose 100 mg/kg, route intraperitoneal. The data set is classed as toxicity, organism-based. As to conditions: in vivo.
In data set [2] the test system is Mus musculus. The data set can be described thus: Anticonvulsant activity in albino CF1 mouse assessed as protection against maximal electroshock-induced seizures at 100 mg/kg, ip measured after 1 hr. Type of data set: functional, organism-based. Further details: dose 100 mg/kg. (The maximal electroshock test induces tonic seizures with an electrical stimulus.)

Data set [3] deals with Rattus norvegicus. The data set can be described thus: Anticonvulsant activity in pilocarpine-induced status prevention Sprague-Dawley rat model assessed as weight change 24 hrs post-first stage 3 seizure of non-protected rat at 300 mg/kg, ip measured after 0.5 hr. The data set is classed as functional. As to conditions: route intraperitoneal.
The test system of data set [4] is Mus musculus. The data set can be described thus: Neurotoxicity in albino CF1 mouse at 100 mg/kg, ip measured after 0.5 hr. On the set-up: dose 100 mg/kg, route intraperitoneal. As to conditions: in vivo. The data set is classed as toxicity, organism-based.
The test system of data set [5] is Mus musculus. Put plainly: Anticonvulsant activity in albino CF1 mouse assessed as protection against subcutaneous metrazol-induced seizures at 100 mg/kg, ip measured after 1 hr. The data set is classed as functional, organism-based. Further details: dose 100 mg/kg.
The subject of data set [6] is Mus musculus. The data set can be described thus: Neurotoxicity in 32 mA current-induced seizure albino CF1 mouse model at 100 mg/kg, ip measured after 0.25 hr. On the set-up: dose 100 mg/kg, route intraperitoneal. As to conditions: in vivo. Type of data set: toxicity, organism-based.
In data set [7] the test system is Mus musculus. Put plainly: Neurotoxicity in albino CF1 mouse at 100 mg/kg, ip measured after 4 hrs. The data set is classed as toxicity, organism-based. Further details: dose 100 mg/kg, route intraperitoneal. Conditions: in vivo.
Data set [8] concerns Mus musculus. Put plainly: Neurotoxicity in 32 mA current-induced seizure albino CF1 mouse model at 100 mg/kg, ip measured after 4 hrs. Type of data set: toxicity, organism-based. Further details: dose 100 mg/kg, route intraperitoneal. Conditions: in vivo.
Data set [9] has as its system Mus musculus. Put plainly: Anticonvulsant activity in albino CF1 mouse assessed as protection against subcutaneous metrazol-induced seizures at 100 mg/kg, ip measured after 0.25 hr. Type of data set: functional, organism-based. On the set-up: dose 100 mg/kg.
Data set [10] has as its system Mus musculus. Put plainly: Anticonvulsant activity in albino CF1 mouse assessed as protection against 32 mA current-induced seizures at 100 mg/kg, ip measured after 0.5 hr. The data set is classed as functional, organism-based. On the set-up: dose 100 mg/kg.
Data set [11] has as its system Mus musculus. Put plainly: Anticonvulsant activity in albino CF1 mouse assessed as protection against 32 mA current-induced seizures at 100 mg/kg, ip measured after 1 hr. Type of data set: functional, organism-based. On the set-up: dose 100 mg/kg.
The subject of data set [12] is Mus musculus. The data set can be described thus: Anticonvulsant activity in albino CF1 mouse assessed as protection against maximal electroshock-induced seizures at 100 mg/kg, ip measured after 4 hrs. The data set is classed as functional, organism-based. On the set-up: dose 100 mg/kg.
Data set [13] deals with Mus musculus. The data set can be described thus: Neurotoxicity in albino CF1 mouse at 100 mg/kg, ip measured after 0.25 hr. Type of data set: toxicity, organism-based. On the set-up: dose 100 mg/kg, route intraperitoneal. Conditions: in vivo.
The test system of data set [14] is Mus musculus. The data set can be described thus: Neurotoxicity in 32 mA current-induced seizure albino CF1 mouse model at 100 mg/kg, ip measured after 2 hrs. Conditions: in vivo. Further details: dose 100 mg/kg, route intraperitoneal. Type of data set: toxicity, organism-based.
The test system of data set [15] is Mus musculus. Put plainly: Neurotoxicity in 32 mA current-induced seizure albino CF1 mouse model at 100 mg/kg, ip measured after 1 hr. Further details: dose 100 mg/kg, route intraperitoneal. The data set is classed as toxicity, organism-based. As to conditions: in vivo.
The test system of data set [16] is Mus musculus. The data set can be described thus: Anticonvulsant activity in albino CF1 mouse assessed as protection against 32 mA current-induced seizures at 100 mg/kg, ip measured after 4 hrs. The data set is classed as functional, organism-based. Further details: dose 100 mg/kg.
Data set [17] deals with Mus musculus. Put plainly: Anticonvulsant activity in albino CF1 mouse assessed as protection against subcutaneous metrazol-induced seizures at 100 mg/kg, ip measured after 4 hrs. The data set is classed as functional, organism-based. On the set-up: dose 100 mg/kg.
Data set [18] has as its system Rattus norvegicus. Put plainly: Anticonvulsant activity in pilocarpine-induced status prevention Sprague-Dawley rat model assessed as weight change 24 hrs post-first stage 3 seizure of protected rat at 300 mg/kg, ip measured after 0.5 hr. Type of data set: functional. Conditions: route intraperitoneal.
Data set [19] has as its system Mus musculus. The data set can be described thus: Anticonvulsant activity in albino CF1 mouse assessed as protection against maximal electroshock-induced seizures at 100 mg/kg, ip measured after 0.5 hr. The data set is classed as functional, organism-based. Further details: dose 100 mg/kg.
For data set [20], the system named is Mus musculus. Put plainly: Anticonvulsant activity in albino CF1 mouse assessed as protection against 32 mA current-induced seizures at 100 mg/kg, ip measured after 0.25 hr. Further details: dose 100 mg/kg. Type of data set: functional, organism-based.
Data set [21] has as its system Mus musculus. The data set can be described thus: Anticonvulsant activity in albino CF1 mouse assessed as protection against maximal electroshock-induced seizures at 100 mg/kg, ip measured after 0.25 hr. The data set is classed as functional, organism-based. Further details: dose 100 mg/kg.
Data set [22] has as its system Mus musculus. Put plainly: Anticonvulsant activity in albino CF1 mouse assessed as protection against 32 mA current-induced seizures at 100 mg/kg, ip measured after 2 hrs. The data set is classed as functional, organism-based. On the set-up: dose 100 mg/kg.
The test system of data set [23] is Mus musculus. The data set can be described thus: Neurotoxicity in albino CF1 mouse at 100 mg/kg, ip measured after 1 hr. Type of data set: toxicity, organism-based. Further details: dose 100 mg/kg, route intraperitoneal. Conditions: in vivo.
Data set [24] has as its system Mus musculus. The data set can be described thus: Anticonvulsant activity in albino CF1 mouse assessed as protection against subcutaneous metrazol-induced seizures at 100 mg/kg, ip measured after 0.5 hr. The data set is classed as functional, organism-based. Further details: dose 100 mg/kg.
Data set [25] relates to Mus musculus. Put plainly: Anticonvulsant activity in ip dosed corneal kindled albino CF1 mouse seizure model assessed as time to peak effect. Type of data set: functional.
In data set [26] the test system is Rattus norvegicus. The data set can be described thus: Anticonvulsant activity in ip dosed Sprague-Dawley rat assessed as protection against subcutaneous metrazol-induced seizures. The data set is classed as functional.
The test system of data set [27] is Mus musculus. Put plainly: Anticonvulsant activity in ip dosed corneal kindled albino CF1 mouse seizure model. The data set is classed as functional.
Data set [28] is described as follows: Protective index, ratio of TD50 for neurotoxicity in ip dosed Sprague-Dawley rat to ED50 for anticonvulsant activity in ip dosed MES Sprague-Dawley rat model. Type of data set: toxicity, organism-based. As to conditions: in vivo, read-out: Ratio TD50/ED50.
The test system of data set [29] is Rattus norvegicus. Put plainly: Anticonvulsant activity in ip dosed Sprague-Dawley rat assessed as protection against subcutaneous metrazol-induced seizures measured at 0.25 hr post dose. The data set is classed as functional.
For data set [30], the system named is Rattus norvegicus. The data set can be described thus: Anticonvulsant activity in ip dosed Sprague-Dawley rat assessed as protection against maximal electroshock-induced seizures. The data set is classed as functional.
Data set [31] has as its system Rattus norvegicus. Put plainly: Anticonvulsant activity in ip dosed Sprague-Dawley rat assessed as protection against maximal electroshock-induced seizures measured as time to peak effect. Type of data set: functional.
A short description of data set [32]: Neurotoxicity in ip dosed Sprague-Dawley rat measured at 0.25 hr post dose. Type of data set: toxicity, organism-based. As to conditions: in vivo.
The subject of data set [33] is Mus musculus. The data set can be described thus: Anticonvulsant activity in ip dosed albino CF1 mouse assessed as protection against 6 Hz current-induced seizures. The data set is classed as functional.
A short description of data set [34]: Protective index, ratio of TD50 for neurotoxicity in ip dosed albino CF1 mouse to ED50 for anticonvulsant activity in ip dosed 6 Hz current-induced seizure albino CF1 mouse model. Conditions: in vivo, read-out: Ratio TD50/ED50. Type of data set: toxicity, organism-based.
Data set [35] concerns Mus musculus. Put plainly: Neurotoxicity in ip dosed 6 Hz current-induced seizure albino CF1 mouse model. Type of data set: toxicity, organism-based. Conditions: in vivo.
For data set [36], the system named is Mus musculus. The data set can be described thus: Anticonvulsant activity in ip dosed albino CF1 mouse assessed as protection against 6 Hz current-induced seizures measured as time to peak effect. The data set is classed as functional.

For the compound `O=C1NC(=O)[C@@H]2CCCN2[C@H]1c1ccc(F)cc1`, the Activity entry with Mus musculus [1] is on record as “Non-toxic”; in the data set with Rattus norvegicus [3], -30 g; with Mus musculus [4], “Non-toxic”; in the data set on Mus musculus [6], “Non-toxic”; in the data set on Mus musculus [7] it was “Non-toxic”; with Mus musculus [8], “Non-toxic”. For the same compound, the Activity entry with Mus musculus [13] is on record as “Non-toxic”; with Mus musculus [14], “Non-toxic”; in the data set with Mus musculus [15], “Non-toxic”; with Rattus norvegicus [18], -12 g; in the data set with Mus musculus [23], “Non-toxic”. The result in the data set on Mus musculus [2], in the data set with Mus musculus [9], in the data set with Mus musculus [20] and in the data set with Mus musculus [21] was Active. The outcome in the data set with Mus musculus [5], in the data set with Mus musculus [10], in the data set with Mus musculus [11], in the data set on Mus musculus [12], in the data set with Mus musculus [16] and in the data set on Mus musculus [17] was inactive. Moreover, the result with Mus musculus [19], in the data set on Mus musculus [22] and in the data set on Mus musculus [24] was inactive.

`CCCC(CCC)C(=O)[O-].[Na+]` [VALPROATE SODIUM]: the Time in the data set on Mus musculus [25] and in the data set with Rattus norvegicus [31] was 0.5 h throughout. For the same compound, the ED50 in the data set with Rattus norvegicus [26] was determined as 1420 µmol/kg; in the data set with Mus musculus [27], 948 µmol/kg; in the data set on Rattus norvegicus [29] it was 1420 µmol/kg; with Rattus norvegicus [30], 890 µmol/kg. For the same compound, in data set [28], the selectivity ratio amounted to 2.1. The TD50 at 0.25 h in [32] was 1910 µmol/kg.

Consider `CC[C@@H](C(N)=O)N1CCCC1=O`, for which the ED50 is 114 µmol/kg with Mus musculus [33], 252 µmol/kg with Mus musculus [35] and 94 µmol/kg with Mus musculus [27]. Further, the Time in the data set on Mus musculus [25] is 0.5 h; in the data set with Mus musculus [36] it was 1 h. Also, the selectivity ratio in data set [34] is greater than 25.8.

The term ED50 denotes the dose that gives a 50% effect, or the effect in half of the subjects. As usually defined, the TD50 is the dose at which the toxic effect under study appears in half of the subjects. A high value points to lower toxicity.
